According to article PMC3961306, “Comparison of the Cancer Gene Targeting and Biochemical Selectivities of All Targeted Kinase Inhibitors Approved for Clinical Use” (PLoS ONE, 2014):

Experiments:
Assay in all cases: Kinase profiling in a biochemical assay panel (mobility shift assays and ELISA), %-inhibition at 1 μM; selectivity entropy
[1] = molecular target: panel of more than 300 wild-type and mutant kinases (313 kinase panel) (Homo sapiens, UniProt P54646)
[2] = molecular target: panel of more than 300 wild-type and mutant kinases (313 kinase panel) (Homo sapiens, UniProt P06213)
panel of more than 300 wild-type and mutant kinases (313 kinase panel) (Homo sapiens, UniProt P06213), sequence (P06213 28-1382, change not shown): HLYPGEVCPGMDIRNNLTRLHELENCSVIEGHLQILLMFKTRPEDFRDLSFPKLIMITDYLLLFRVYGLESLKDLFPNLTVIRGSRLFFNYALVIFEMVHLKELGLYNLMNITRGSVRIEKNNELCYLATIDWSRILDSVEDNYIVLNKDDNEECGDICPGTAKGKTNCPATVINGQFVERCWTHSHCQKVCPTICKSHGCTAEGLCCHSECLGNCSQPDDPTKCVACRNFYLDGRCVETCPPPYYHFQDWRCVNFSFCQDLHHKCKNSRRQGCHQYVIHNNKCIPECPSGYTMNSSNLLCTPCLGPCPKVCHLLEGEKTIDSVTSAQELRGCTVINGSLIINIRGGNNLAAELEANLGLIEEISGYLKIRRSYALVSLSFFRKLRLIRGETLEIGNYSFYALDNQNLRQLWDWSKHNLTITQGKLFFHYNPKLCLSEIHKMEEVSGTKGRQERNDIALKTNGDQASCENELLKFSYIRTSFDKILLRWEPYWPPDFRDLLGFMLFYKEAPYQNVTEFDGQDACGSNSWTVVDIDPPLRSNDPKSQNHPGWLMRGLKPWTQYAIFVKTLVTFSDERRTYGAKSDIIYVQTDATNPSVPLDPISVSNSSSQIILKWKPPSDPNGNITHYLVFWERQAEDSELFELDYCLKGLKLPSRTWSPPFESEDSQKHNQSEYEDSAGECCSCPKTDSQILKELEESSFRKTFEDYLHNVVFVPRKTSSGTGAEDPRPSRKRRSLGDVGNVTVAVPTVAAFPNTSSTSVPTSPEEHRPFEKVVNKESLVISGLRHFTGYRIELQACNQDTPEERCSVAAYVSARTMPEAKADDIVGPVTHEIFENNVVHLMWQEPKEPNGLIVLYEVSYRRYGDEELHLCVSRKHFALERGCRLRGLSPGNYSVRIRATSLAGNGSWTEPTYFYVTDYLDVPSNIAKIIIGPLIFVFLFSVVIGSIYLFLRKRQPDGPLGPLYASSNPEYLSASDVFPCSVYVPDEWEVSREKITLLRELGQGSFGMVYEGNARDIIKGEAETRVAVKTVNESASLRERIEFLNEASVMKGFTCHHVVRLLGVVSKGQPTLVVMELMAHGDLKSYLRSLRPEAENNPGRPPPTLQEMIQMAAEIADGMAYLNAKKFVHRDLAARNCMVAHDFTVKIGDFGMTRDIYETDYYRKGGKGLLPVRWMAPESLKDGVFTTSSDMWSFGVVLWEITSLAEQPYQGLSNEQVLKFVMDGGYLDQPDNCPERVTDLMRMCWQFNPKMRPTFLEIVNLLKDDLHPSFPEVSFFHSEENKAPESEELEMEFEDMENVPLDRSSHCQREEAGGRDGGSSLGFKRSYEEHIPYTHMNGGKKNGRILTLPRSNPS

[3] = molecular target: panel of more than 300 wild-type and mutant kinases (313 kinase panel) (Homo sapiens, UniProt P29376)
[4] = molecular target: panel of more than 300 wild-type and mutant kinases (313 kinase panel) (Homo sapiens, UniProt P22455, V550L); conditions: kinase FGFR4(V550L); compound at 1 μM
panel of more than 300 wild-type and mutant kinases (313 kinase panel) (Homo sapiens, UniProt P22455, V550L), sequence (P22455 22-802 V550L): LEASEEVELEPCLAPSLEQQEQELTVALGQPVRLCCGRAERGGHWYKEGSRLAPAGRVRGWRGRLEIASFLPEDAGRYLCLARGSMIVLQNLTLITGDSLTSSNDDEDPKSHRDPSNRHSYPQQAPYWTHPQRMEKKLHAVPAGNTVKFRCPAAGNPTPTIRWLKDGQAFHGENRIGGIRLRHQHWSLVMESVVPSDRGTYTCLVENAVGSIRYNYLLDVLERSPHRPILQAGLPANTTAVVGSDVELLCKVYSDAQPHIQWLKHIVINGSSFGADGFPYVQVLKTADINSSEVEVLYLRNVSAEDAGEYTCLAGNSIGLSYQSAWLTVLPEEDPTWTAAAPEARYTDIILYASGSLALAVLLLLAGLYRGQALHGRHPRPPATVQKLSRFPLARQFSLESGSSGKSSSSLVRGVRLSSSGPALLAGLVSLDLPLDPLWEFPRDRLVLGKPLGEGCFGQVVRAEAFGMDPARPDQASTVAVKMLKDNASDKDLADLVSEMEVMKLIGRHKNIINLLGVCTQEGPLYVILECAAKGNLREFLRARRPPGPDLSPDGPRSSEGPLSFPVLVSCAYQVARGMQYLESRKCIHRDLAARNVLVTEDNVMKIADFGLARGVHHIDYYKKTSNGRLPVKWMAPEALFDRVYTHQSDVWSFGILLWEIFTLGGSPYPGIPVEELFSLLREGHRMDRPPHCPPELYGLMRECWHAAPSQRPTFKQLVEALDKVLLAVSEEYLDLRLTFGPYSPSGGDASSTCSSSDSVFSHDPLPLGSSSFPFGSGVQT

[5] = molecular target: T1, panel of more than 300 wild-type and mutant kinases (313 kinase panel) (Homo sapiens, UniProt P36888)
T1 sequence (P36888 27-993): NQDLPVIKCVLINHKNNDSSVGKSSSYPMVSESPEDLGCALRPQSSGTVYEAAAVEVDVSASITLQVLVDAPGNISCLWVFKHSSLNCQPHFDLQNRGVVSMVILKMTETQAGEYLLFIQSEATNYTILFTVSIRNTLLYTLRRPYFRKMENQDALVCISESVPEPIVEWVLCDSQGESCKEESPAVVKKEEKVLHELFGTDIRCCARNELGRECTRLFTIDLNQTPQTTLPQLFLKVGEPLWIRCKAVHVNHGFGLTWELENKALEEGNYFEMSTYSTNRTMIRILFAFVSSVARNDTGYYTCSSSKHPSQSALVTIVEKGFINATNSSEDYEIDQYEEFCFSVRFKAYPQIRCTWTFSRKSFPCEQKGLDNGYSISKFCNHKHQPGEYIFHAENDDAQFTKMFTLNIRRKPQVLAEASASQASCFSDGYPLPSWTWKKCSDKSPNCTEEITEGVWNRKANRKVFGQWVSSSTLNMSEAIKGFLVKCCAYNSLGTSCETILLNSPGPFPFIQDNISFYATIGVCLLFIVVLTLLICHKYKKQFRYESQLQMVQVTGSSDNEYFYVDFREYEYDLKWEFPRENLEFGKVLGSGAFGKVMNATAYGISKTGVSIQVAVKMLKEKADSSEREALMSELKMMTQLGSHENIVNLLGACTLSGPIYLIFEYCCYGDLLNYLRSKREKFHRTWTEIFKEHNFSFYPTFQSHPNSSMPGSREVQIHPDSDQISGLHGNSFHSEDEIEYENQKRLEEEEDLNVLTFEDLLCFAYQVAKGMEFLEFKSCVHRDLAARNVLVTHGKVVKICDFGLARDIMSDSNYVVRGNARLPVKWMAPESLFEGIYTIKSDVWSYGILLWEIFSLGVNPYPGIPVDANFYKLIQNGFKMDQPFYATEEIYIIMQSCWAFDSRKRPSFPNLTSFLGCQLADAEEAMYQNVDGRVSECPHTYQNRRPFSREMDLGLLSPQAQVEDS

[6] = molecular target: panel of more than 300 wild-type and mutant kinases (313 kinase panel) (Homo sapiens, UniProt P07949, Y791F)
panel of more than 300 wild-type and mutant kinases (313 kinase panel) (Homo sapiens, UniProt P07949, Y791F), sequence (P07949 29-1114 Y791F): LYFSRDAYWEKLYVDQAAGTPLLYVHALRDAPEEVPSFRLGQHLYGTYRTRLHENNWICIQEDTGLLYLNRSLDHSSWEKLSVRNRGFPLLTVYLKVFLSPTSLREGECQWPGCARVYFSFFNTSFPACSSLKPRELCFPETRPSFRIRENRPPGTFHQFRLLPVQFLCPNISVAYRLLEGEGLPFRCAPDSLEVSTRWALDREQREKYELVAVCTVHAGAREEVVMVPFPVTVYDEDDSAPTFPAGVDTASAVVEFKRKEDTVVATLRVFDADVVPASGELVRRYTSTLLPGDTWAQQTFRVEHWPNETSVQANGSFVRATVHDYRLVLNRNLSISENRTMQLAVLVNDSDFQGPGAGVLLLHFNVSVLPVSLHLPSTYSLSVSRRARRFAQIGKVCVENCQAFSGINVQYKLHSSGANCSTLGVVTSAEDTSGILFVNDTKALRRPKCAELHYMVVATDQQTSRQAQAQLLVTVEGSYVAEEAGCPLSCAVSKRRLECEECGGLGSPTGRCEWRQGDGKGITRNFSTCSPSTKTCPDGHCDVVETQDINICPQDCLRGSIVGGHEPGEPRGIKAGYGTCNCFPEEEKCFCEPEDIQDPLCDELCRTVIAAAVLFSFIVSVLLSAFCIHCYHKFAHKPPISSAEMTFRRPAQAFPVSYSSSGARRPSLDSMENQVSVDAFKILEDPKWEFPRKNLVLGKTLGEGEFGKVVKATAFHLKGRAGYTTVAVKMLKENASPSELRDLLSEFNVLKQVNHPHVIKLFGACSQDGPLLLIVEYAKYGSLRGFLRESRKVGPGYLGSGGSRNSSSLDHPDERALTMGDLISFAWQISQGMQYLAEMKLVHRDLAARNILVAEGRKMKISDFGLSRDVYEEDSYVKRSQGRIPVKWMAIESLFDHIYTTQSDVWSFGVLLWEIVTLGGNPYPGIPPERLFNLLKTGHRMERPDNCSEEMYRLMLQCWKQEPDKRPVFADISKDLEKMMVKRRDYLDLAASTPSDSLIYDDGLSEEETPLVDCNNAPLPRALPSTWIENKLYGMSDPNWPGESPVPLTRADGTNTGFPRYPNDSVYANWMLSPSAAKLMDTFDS

[7] = molecular target: panel of more than 300 wild-type and mutant kinases (313 kinase panel) (Homo sapiens, UniProt P29317)
[8] = molecular target: panel of more than 300 wild-type and mutant kinases (313 kinase panel) (Homo sapiens, UniProt P08581, Y1235D)
panel of more than 300 wild-type and mutant kinases (313 kinase panel) (Homo sapiens, UniProt P08581, Y1235D), sequence (P08581 25-1390 Y1235D): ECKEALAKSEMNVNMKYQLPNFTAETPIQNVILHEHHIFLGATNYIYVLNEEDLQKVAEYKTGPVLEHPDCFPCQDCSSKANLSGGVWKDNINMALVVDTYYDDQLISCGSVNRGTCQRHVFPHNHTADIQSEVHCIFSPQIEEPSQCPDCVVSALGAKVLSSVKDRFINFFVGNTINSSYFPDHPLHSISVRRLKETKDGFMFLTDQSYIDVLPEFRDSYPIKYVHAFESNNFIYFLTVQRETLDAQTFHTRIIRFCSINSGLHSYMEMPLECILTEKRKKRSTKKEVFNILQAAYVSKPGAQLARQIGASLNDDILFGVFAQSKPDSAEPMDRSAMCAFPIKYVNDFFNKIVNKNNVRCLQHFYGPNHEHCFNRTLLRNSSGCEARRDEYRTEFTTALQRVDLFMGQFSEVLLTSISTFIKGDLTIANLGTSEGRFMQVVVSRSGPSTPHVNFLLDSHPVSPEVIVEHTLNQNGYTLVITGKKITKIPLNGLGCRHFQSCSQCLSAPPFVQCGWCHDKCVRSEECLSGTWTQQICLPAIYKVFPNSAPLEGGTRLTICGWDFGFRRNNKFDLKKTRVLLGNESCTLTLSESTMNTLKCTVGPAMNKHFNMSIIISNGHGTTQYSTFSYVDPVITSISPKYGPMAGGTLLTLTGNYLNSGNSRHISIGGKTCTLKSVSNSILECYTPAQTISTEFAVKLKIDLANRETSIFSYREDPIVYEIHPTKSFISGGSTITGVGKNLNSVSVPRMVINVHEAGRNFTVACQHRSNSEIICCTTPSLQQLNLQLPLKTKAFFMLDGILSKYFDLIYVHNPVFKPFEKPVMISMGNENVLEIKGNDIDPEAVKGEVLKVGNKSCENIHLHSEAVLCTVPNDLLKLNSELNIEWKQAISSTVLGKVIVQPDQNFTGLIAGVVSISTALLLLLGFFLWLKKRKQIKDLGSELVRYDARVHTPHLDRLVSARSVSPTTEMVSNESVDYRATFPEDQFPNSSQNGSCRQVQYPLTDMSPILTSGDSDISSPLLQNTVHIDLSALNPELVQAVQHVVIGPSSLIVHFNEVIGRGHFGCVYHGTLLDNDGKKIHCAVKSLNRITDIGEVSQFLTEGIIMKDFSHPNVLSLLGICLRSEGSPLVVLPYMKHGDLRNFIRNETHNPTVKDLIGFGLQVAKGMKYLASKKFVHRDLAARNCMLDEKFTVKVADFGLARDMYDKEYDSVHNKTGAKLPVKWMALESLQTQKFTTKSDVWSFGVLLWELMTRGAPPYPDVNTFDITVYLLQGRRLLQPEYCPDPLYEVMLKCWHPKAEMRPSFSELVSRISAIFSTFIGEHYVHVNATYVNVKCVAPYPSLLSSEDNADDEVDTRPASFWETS

[9] = molecular target: panel of more than 300 wild-type and mutant kinases (313 kinase panel) (Homo sapiens, UniProt Q9Y6E0)
[10] = molecular target: panel of more than 300 wild-type and mutant kinases (313 kinase panel) (Homo sapiens, UniProt P17612)
[11] = kinase AMPKα2/β1/γ1, 1 μM compound
[12] = kinase MET(Y1235D), compound at 1 μM

Row | Structure (SMILES) | %-inhibition, AMPKα2/β1/γ1 [1, 11] | %-inhibition of INSR ([2]; kinase INSR, compound at 1 μM) | %-inhibition of LTK ([3]; kinase LTK, compound at 1 μM) | %-inhibition of FGFR4(V550L) [4] | %-inhibition of FLT3 ([5]; kinase FLT3, compound at 1 μM) | %-inhibition of RET(Y791F) ([6]; kinase RET(Y791F), 1 μM) | %-inhibition of EPHA2 ([7]; kinase EPHA2, compound at 1 μM) | %-inhibition of MET(Y1235D) [8, 12] | %-inhibition of MST3 ([9]; kinase MST3, 1 μM) | %-inhibition of PKACα ([10]; kinase PKACα, 1 μM) | %-inhibition of PKACα ([10]; 1 µM) | %-inhibition, AMPKα2/β1/γ1 ([1]; 1 µM) | %-inhibition of INSR ([2]; 1 µM) | %-inhibition of LTK ([3]; 1 µM) | %-inhibition of MET(Y1235D) ([8]; 1 µM) | %-inhibition of RET(Y791F) ([6]; 1 µM) | %-inhibition of MST3 ([9]; 1 µM) | %-inhibition of EPHA2 ([7]; 1 µM) | %-inhibition of FLT3 ([5]; 1 µM)
1 | Cc1ccc(C(=O)Nc2ccc(CN3CCN(C)CC3)c(C(F)(F)F)c2)cc1C#Cc1cnc2cccnn12 [ponatinib] | 89% | 43% | 85% | 20% | 99% | 102% | 102% |  |  |  |  |  |  |  |  |  |  |  | 
2 | CC(C)(C)c1nc(-c2cccc(NS(=O)(=O)c3c(F)cccc3F)c2F)c(-c2ccnc(N)n2)s1 [dabrafenib] |  | 7.51% | 2.67% | -1.08% | 41% | 36% | 7% | 25% | 0.532% |  |  |  |  |  |  |  |  |  | 
3 | COc1cc(Nc2c(C#N)cnc3cc(OCCCN4CCN(C)CC4)c(OC)cc23)c(Cl)cc1Cl [bosutinib] | 10% | 65% | 59% | -7% | 77% | 93% |  | 14% |  | 58% |  |  |  |  |  |  |  |  | 
4 | Cc1nc(Nc2ncc(C(=O)Nc3c(C)cccc3Cl)s2)cc(N2CCN(CCO)CC2)n1 [dasatinib] |  |  |  |  |  |  |  |  | 20% | 0.736% |  |  |  |  |  |  |  |  | 
5 | CO[C@H]1C[C@@H]2CC[C@@H](C)[C@@](O)(O2)C(=O)C(=O)N2CCCC[C@H]2C(=O)O[C@H]([C@H](C)C[C@@H]2CC[C@@H](OC(=O)C(C)(CO)CO)[C@H](OC)C2)CC(=O)[C@H](C)/C=C(\C)[C@@H](O)[C@@H](OC)C(=O)[C@H](C)C[C@H](C)/C=C/C=C/C=C/1C [temsirolimus] | -4% | -4% | -10% | -8.55% | 5% | -0.679% | -5.58% | -6.4% | -3.6% | -6% |  |  |  |  |  |  |  |  | 
6 | C#Cc1cccc(Nc2ncnc3cc(OCCOC)c(OCCOC)cc23)c1 [erlotinib] |  |  |  |  |  |  |  |  |  |  | 4.34% | 4.43% | 4% | 41% | 22% | 70% | 3.69% | 18% | 
7 | CCCS(=O)(=O)Nc1ccc(F)c(C(=O)c2c[nH]c3ncc(-c4ccc(Cl)cc4)cc23)c1F [vemurafenib] | 6.49% | 17% | 2.6% | 0.45% | 10% | 30% | 0.715% | 2.5% | -1.73% | -4% |  |  |  |  |  |  |  |  | 
8 | N#CC[C@H](C1CCCC1)n1cc(-c2ncnc3[nH]ccc23)cn1 [ruxolitinib] |  | 0.837% | 97% | 16% |  |  | 28% |  | -1.15% |  | 48% | 7.49% |  |  | -0.936% |  |  |  | 18%
